Source: ChEMBL document CHEMBL1147445, “Antagonists of human CCR5 receptor containing 4-(pyrazolyl)piperidine side chains. Part 2: Discovery of potent, selective, and orally bioavailable compounds” (Bioorg Med Chem Lett, 2004)

How the values were obtained:
[1] = Oral bioavailability in rat; conditions: in vivo
in vivo [2] = conditions: rat, plasma
in vivo [3] = conditions: rat
[4] = Inhibition of HIV-1 infectivity using peripheral bloodmonon uclear cells against the BAL-1 strain; type: functional; conditions: Homo sapiens
[5] = biological target: T1, C-C chemokine receptor type 5 (Homo sapiens, UniProt P51681); assay: Inhibitory concentration of compound to displace GP120 from […] chemokine receptor 5
Rattus norvegicus [6] = assay: Area under curve in rat after p.o. administration; conditions: in vivo, po
HeLa = assay: In vitro antiviral activity against HIV-1 infected HeLa cells; type: functional; conditions: Homo sapiens
[7] = Inhibition of HIV-1 infectivity using peripheral bloodmonon uclear cells against the BAL-1 strain in the presence of 50% normal human serum (NHS); type: functional
Rattus norvegicus [8] = assay: Volumes of distribution in rat after po administration; conditions: in vivo
[9] = biological target: T1, C-C chemokine receptor type 5; assay: Displacement of [125I]-MIP-1 alpha from human […] chemokine receptor 5 expressed in CHO cells; type: cell-based
[10] = Clearance rat (dosed at 0.5 mpk IV and 2.0 mpk po.); type: ADME, organism-based; conditions: plasma, 0.5 mg/kg, read-out: Clp
Canis familiaris = assay: Oral AUCN in dog (dosed at 2.0 mpk po ); conditions: in vivo, 2.0 mg/kg
[11] = Plasma clearance in dog (dosed at 0.5 mpk iv and 2.0 mpk orally); type: ADME, organism-based, Canis lupus familiaris; conditions: 0.5 mg/kg, read-out: Clp
[12] = Oral bioavailability in dog (dose 0.5 mg/kg i.v. and 2.0 mg/kg p.o.); type: ADME, organism-based, Canis lupus familiaris; conditions: in vivo
[13] = Half life in dog (dosed at 0.5 mpk iv and 2.0 mpk orally); type: ADME, organism-based, Canis lupus familiaris; conditions: in vivo
[14] = Plasma clearance in monkey (dosed at 0.5 mpk iv and 2.0 mpk orally); type: ADME, organism-based; conditions: cercopithecidae, 0.5 mg/kg, read-out: Clp
[15] = Half life in monkey (dosed at 0.5 mpk iv and 2.0 mpk orally); type: ADME, organism-based; conditions: cercopithecidae, in vivo
[16] = Oral AUCN in monkey (dosed at 0.5 mpk iv ); type: ADME, organism-based; conditions: cercopithecidae, in vivo, 0.5 mg/kg
[17] = Oral bioavailability in monkey (dosed at 0.5 mpk iv and 2.0 mpk orally); type: ADME, organism-based; conditions: cercopithecidae, in vivo, 2 mg/kg
Rattus norvegicus [18] = assay: Area under curve in rat after peroral administration; type: ADME, organism-based; conditions: in vivo, po
[19] = biological target: T1, C-C chemokine receptor type 5; assay: Inhibitory concentration of compound to displace GP120 from […] chemokine receptor 5; remark: listed apart in the source

T1 sequence (P51681 whole entry): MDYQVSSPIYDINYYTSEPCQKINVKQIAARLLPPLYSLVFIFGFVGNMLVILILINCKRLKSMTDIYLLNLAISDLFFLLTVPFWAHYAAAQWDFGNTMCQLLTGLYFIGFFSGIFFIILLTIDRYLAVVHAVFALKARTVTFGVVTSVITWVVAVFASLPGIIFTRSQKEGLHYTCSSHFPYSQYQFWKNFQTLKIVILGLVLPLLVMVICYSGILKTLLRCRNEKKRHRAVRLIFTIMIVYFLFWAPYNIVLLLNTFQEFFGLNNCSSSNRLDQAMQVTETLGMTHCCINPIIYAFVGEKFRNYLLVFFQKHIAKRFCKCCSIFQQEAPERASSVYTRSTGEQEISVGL

Question: What does the source list for `CCn1nc(Cc2ccccc2)cc1C1CCN(C[C@H]2CN([C@H](CC(C)C)C(=O)O)C[C@@H]2c2ccccc2)CC1`?
Answer: bioavailability [1]: 17%; clearance (in vivo [2]): 43 mL/min/kg; half-life (in vivo [3]): 72 min; IC95 [4]: < 8 nM; IC50 [5]: 2.9 nM; AUC N (Rattus norvegicus [6]): 0.13 uM hr dose-1; IC90 (HeLa): 3.7 nM; IC95 [7]: 125 nM; Vdss (Rattus norvegicus [8]): 2.1 L/kg

Question: Which IC50 [9] does the source give for `CCn1nc(Cc2ccccc2)cc1C1CCN(C[C@H]2CN([C@@](C)(C(=O)O)C(C)C)C[C@@H]2c2cccc(F)c2)CC1` here?
Answer: 1.6 nM

Question: What about the IC90 (HeLa) of the same compound?
Answer: 300 nM

Question: Which bioavailability [1] does the source give for `CCn1nc(Cc2ccccc2)cc1C1CCN(C[C@H]2CN([C@@H](C(=O)O)C(C)C)C[C@@H]2c2ccccc2)CC1` here?
Answer: 17%

Question: What about the half-life (in vivo [3]) of the same compound?
Answer: 336 min

Question: And the clearance [10]?
Answer: 12.6 mL/min/kg

Question: And the IC50 [5]?
Answer: 2.8 nM

Question: And the “AUC N” value (Rattus norvegicus [6])?
Answer: 0.45 uM hr dose-1

Question: And the IC90 (HeLa)?
Answer: 11 nM

Question: Which bioavailability [1] does the source give for `CCn1nc(Cc2ccccc2)cc1C1CCN(C[C@H]2CN([C@@H](C(=O)O)C(C)(C)C)C[C@@H]2c2cccc(F)c2)CC1` here?
Answer: 71%

Question: What about the clearance (in vivo [2]) of the same compound?
Answer: 5.7 mL/min/kg

Question: And the half-life (in vivo [3])?
Answer: 47.4 min

Question: And the “AUC N” value (Canis familiaris)?
Answer: 1 uM hr dose-1

Question: What about the clearance [11] of the same compound?
Answer: 13 mL/min/kg

Question: And the bioavailability [12]?
Answer: 44%

Question: And the IC50 [9]?
Answer: 0.8 nM

Question: What about the half-life [13] of the same compound?
Answer: 38.4 min

Question: And the “AUC N” value (Rattus norvegicus [6])?
Answer: 3.7 uM hr dose-1

Question: And the IC90 (HeLa)?
Answer: < 0.14 nM

Question: Which results are given for `CCn1nc(Cc2ccccc2)cc1C1CCN(C[C@H]2CN([C@H](CC3CCC3)C(=O)O)C[C@@H]2c2cccc(F)c2)CC1`?
Answer: bioavailability [1]: 7.3%; half-life (in vivo [3]): 42.6 min; IC95 [4]: < 0.8 nM; IC50 [9]: 1.2 nM; clearance [10]: 46 mL/min/kg; AUC N (Rattus norvegicus [6]): 0.05 uM hr dose-1; IC90 (HeLa): 0.4 nM; IC95 [7]: 35 nM

Question: For `CCn1nc(Cc2ccccc2)cc1C1CCN(C[C@H]2CN([C@@H](C(=O)O)C(C)C)C[C@@H]2c2cccc(F)c2)CC1`, which bioavailability [1] is on record?
Answer: 11%

Question: What about the clearance (in vivo [2]) of the same compound?
Answer: 3.2 mL/min/kg

Question: What about the clearance [14] of the same compound?
Answer: 20 mL/min/kg

Question: And the half-life (in vivo [3])?
Answer: 84 min

Question: What about the “AUC N” value (Canis familiaris) of the same compound?
Answer: 1.9 uM hr dose-1

Question: And the half-life [15]?
Answer: 78 min

Question: What about the IC95 [4] of the same compound?
Answer: 22 nM

Question: And the clearance [11]?
Answer: 3.5 mL/min/kg

Question: What about the “AUC N” value [16] of the same compound?
Answer: 0.08 uM hr dose-1

Question: What about the bioavailability [17] of the same compound?
Answer: 4.7%

Question: And the bioavailability [12]?
Answer: 20%

Question: And the IC50 [9]?
Answer: 1.5 nM

Question: What about the half-life [13] of the same compound?
Answer: 204 min

Question: What about the “AUC N” value (Rattus norvegicus [6]) of the same compound?
Answer: 1.1 uM hr dose-1

Question: And the IC90 (HeLa)?
Answer: 3.7 nM

Question: What about the IC95 [7] of the same compound?
Answer: 350 nM

Question: With `CC[C@H](C)[C@H](C(=O)O)N1C[C@H](CN2CCC(c3cc(Cc4ccccc4)nn3CC)CC2)[C@@H](c2cccc(F)c2)C1` as the compound, how does the IC50 [9] read?
Answer: 0.9 nM

Question: And the IC90 (HeLa)?
Answer: 0.4 nM

Question: Which bioavailability [1] does the source give for `CCn1nc(Cc2ccccc2)cc1C1CCN(C[C@H]2CN([C@H](CC3CC3)C(=O)O)C[C@@H]2c2cccc(F)c2)CC1` here?
Answer: 8.1%

Question: And the half-life (in vivo [3])?
Answer: 15 min

Question: And the IC95 [4]?
Answer: < 8 nM

Question: What about the IC50 [9] of the same compound?
Answer: 1.2 nM

Question: And the clearance [10]?
Answer: 81 mL/min/kg

Question: And the “AUC N” value (Rattus norvegicus [6])?
Answer: 0.03 uM hr dose-1

Question: What about the IC90 (HeLa) of the same compound?
Answer: 0.4 nM

Question: And the IC95 [7]?
Answer: 31 nM

Question: Which bioavailability [1] does the source give for `CCn1nc(Cc2ccccc2)cc1C1CCN(C[C@H]2CN([C@@H](C(=O)O)C3CCC3)C[C@@H]2c2ccccc2)CC1` here?
Answer: 11%

Question: And the half-life (in vivo [3])?
Answer: 60 min

Question: What about the IC50 [9] of the same compound?
Answer: 1.6 nM

Question: What about the clearance [10] of the same compound?
Answer: 60 mL/min/kg

Question: What about the “AUC N” value (Rattus norvegicus [6]) of the same compound?
Answer: 0.06 uM hr dose-1

Question: What about the IC90 (HeLa) of the same compound?
Answer: 3.7 nM

Question: For `CCn1nc(Cc2ccccc2)cc1C1CCN(C[C@H]2CN([C@@H](C(=O)O)C3CCCCC3)C[C@@H]2c2cccc(F)c2)CC1`, which IC50 [9] is on record?
Answer: 1.6 nM

Question: What about the IC90 (HeLa) of the same compound?
Answer: 0.4 nM

Question: What does the source list for `CCn1nc(Cc2ccccc2)cc1C1CCN(C[C@H]2CN([C@@H](C(=O)O)C3CCCCC3)C[C@@H]2c2ccccc2)CC1`?
Answer: AUC N (Rattus norvegicus [18]): 0.02 uM hr dose-1; IC95 [4]: < 8 nM; IC50 [19]: 2 nM; IC90 (HeLa): 0.4 nM; IC95 [7]: < 8 nM

Question: Which bioavailability [1] does the source give for `CCn1nc(Cc2ccccc2)cc1C1CCN(C[C@H]2CN([C@](C)(C(=O)O)C(C)C)C[C@@H]2c2cccc(F)c2)CC1` here?
Answer: 21%

Question: And the clearance (in vivo [2])?
Answer: 10 mL/min/kg

Question: What about the half-life (in vivo [3]) of the same compound?
Answer: 44.4 min

Question: And the IC50 [9]?
Answer: 5.5 nM

Question: What about the “AUC N” value (Rattus norvegicus [6]) of the same compound?
Answer: 0.62 uM hr dose-1

Question: And the IC90 (HeLa)?
Answer: > 300 nM

Question: And the Vdss (Rattus norvegicus [8])?
Answer: 0.43 L/kg

Question: Which bioavailability [1] does the source give for `CC[C@@H](C)[C@H](C(=O)O)N1C[C@H](CN2CCC(c3cc(Cc4ccccc4)nn3CC)CC2)[C@@H](c2cccc(F)c2)C1` here?
Answer: 13%

Question: What about the clearance (in vivo [2]) of the same compound?
Answer: 25 mL/min/kg

Question: And the half-life (in vivo [3])?
Answer: 32.4 min

Question: And the IC50 [9]?
Answer: 0.8 nM

Question: What about the “AUC N” value (Rattus norvegicus [6]) of the same compound?
Answer: 0.16 uM hr dose-1

Question: What about the IC90 (HeLa) of the same compound?
Answer: < 0.14 nM

Question: Which bioavailability [1] does the source give for `CCC(CC)[C@H](C(=O)O)N1C[C@H](CN2CCC(c3cc(Cc4ccccc4)nn3CC)CC2)[C@@H](c2cccc(F)c2)C1` here?
Answer: 52%

Question: What about the clearance (in vivo [2]) of the same compound?
Answer: 19 mL/min/kg

Question: What about the half-life (in vivo [3]) of the same compound?
Answer: 35.4 min

Question: And the IC50 [9]?
Answer: 0.9 nM

Question: And the “AUC N” value (Rattus norvegicus [6])?
Answer: 0.8 uM hr dose-1

Question: And the IC90 (HeLa)?
Answer: 0.4 nM
